These results are taken from PubChem BioAssay (NCI).

Several values for one entry are separate records, joined by “and”; a condition that tells them apart may be missing. Identical values can stand only once.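 Where inhibition never reached the appropriate level, the endpoint shown equals the highest concentration tested. Otherwise, values were interpolated linearly from a five-concentration, 48-hour dose response in 96-well plates. Abbreviation: GI50, concentration required for 50% inhibition of growth. TGI: concentration producing complete growth inhibition.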

Some test systems named below: HT29 colon; K-562 leukemia; KM12 colon; NCI-H460 lung; OVCAR-4 ovarian; OVCAR-8 ovarian; PC-3 prostate; U251 CNS; SNB-75 CNS; RXF 393 renal.
Common to all, as to assay: NCI tumour cell line growth inhibition, 48 h

With `COc1ccc(N2C(=O)CSC2c2cc(OC)c(OC)c(OC)c2)cc1` (centres undefined), the TGI in the test on HT29 colon is 57.1 µM; in the test on K-562 leukemia it was over 100 µM; with KM12 colon it was 32.9 µM; with NCI-H460 lung it was 63.5 µM; with OVCAR-4 ovarian, over 100 µM; in the test on OVCAR-8 ovarian, over 100 µM. The results for the TGI with PC-3 prostate and in the test with U251 CNS were over 100 µM and 39 µM, respectively.

For `Cc1cccc(/C=N/NC(=S)NC(C)(C)C)n1`, the TGI with HT29 colon, with K-562 leukemia, with KM12 colon, with NCI-H460 lung, with OVCAR-4 ovarian and with OVCAR-8 ovarian was over 100 µM each time. Moreover, the TGI in the test with PC-3 prostate, with SNB-75 CNS and with U251 CNS was over 100 µM throughout.

`Cc1cc2nnn(C3CCCO3)c2cc1C` (centres undefined): the TGI in the test on HT29 colon, in the test on K-562 leukemia, in the test on NCI-H460 lung, in the test on OVCAR-8 ovarian, in the test on PC-3 prostate and with RXF 393 renal was over 100 µM each time. Also, the TGI in the test with SNB-75 CNS and in the test on U251 CNS was over 100 µM each time.

For `O=C(O)C1(Cc2ccc3c(c2)CCC3)Cc2cc3c(cc2C1)CCC3`, the TGI in the test on HT29 colon, in the test on K-562 leukemia, in the test on KM12 colon, in the test with OVCAR-4 ovarian, with OVCAR-8 ovarian and in the test with PC-3 prostate was over 100 µM in each case. In addition, the TGI in the test on SNB-75 CNS and in the test on U251 CNS was over 100 µM each time.

Turning to `CN(c1ccccc1)c1c(-c2ccccc2)c(=O)oc2c1ccc1occc12`, the TGI with HT29 colon, in the test with K-562 leukemia, in the test with KM12 colon, with NCI-H460 lung, in the test with OVCAR-4 ovarian and with OVCAR-8 ovarian was over 100 µM each time. The TGI with RXF 393 renal, in the test on SNB-75 CNS and in the test on U251 CNS was over 100 µM throughout.

Take `N#Cc1nc(Cc2cccs2)oc1N`: the TGI in the test on HT29 colon, in the test with K-562 leukemia, with KM12 colon, with OVCAR-8 ovarian, in the test with PC-3 prostate and with RXF 393 renal was over 100 µM each time. In addition, the TGI in the test on SNB-75 CNS and in the test on U251 CNS was over 100 µM in each case.

Consider `COc1cccc2c1C(=O)c1c(O)c3c(c(O)c1C2=O)C[C@](O)(C(=O)CO)CC3OC1CC(N)C(OC2CCCCO2)C(C)O1` (some centres undefined), for which the TGI in the test on HT29 colon was 4.52 µM; in the test with K-562 leukemia, 6.5 µM; with NCI-H460 lung, 0.208 µM; in the test with OVCAR-4 ovarian, 4.2 µM; with OVCAR-8 ovarian, 14 µM; in the test with RXF 393 renal, 1.87 µM. The TGI with SNB-75 CNS came out at 1.18 µM; in the test with U251 CNS it was 0.899 µM.

Take `Brc1ccc2[nH]cc(-c3nc(-c4c[nH]c5ccncc45)cs3)c2c1`: the GI50 was 0.98 µM in the test on K-562 leukemia, 1.58 µM with PC-3 prostate, 1.49 µM with RXF 393 renal and 1.22 µM with SNB-75 CNS. Besides, the TGI with K-562 leukemia worked out at 3.38 µM; in the test on PC-3 prostate, 3.06 µM; with RXF 393 renal, 2.87 µM; with SNB-75 CNS it was 2.53 µM.

With `CC1(C)CN=C(c2ccc3ccccc3c2O)N1`, the TGI in the test on K-562 leukemia, in the test with KM12 colon, in the test on NCI-H460 lung, with OVCAR-4 ovarian, in the test with PC-3 prostate and in the test with SNB-75 CNS was over 100 µM throughout. Also, the TGI in the test on U251 CNS is over 100 µM.

Consider `O=C(c1ccccc1)c1ccc2c(c1)N=C(c1ccc(Cl)c(Cl)c1)CC(c1ccc3ccccc3c1)N2` (centres undefined), for which the TGI in the test on HT29 colon, with K-562 leukemia, in the test on KM12 colon, in the test with NCI-H460 lung, in the test with OVCAR-4 ovarian and with OVCAR-8 ovarian was over 100 µM each time. Besides, the TGI with RXF 393 renal, in the test on SNB-75 CNS and with U251 CNS was over 100 µM throughout.

For `Cn1c(=O)c2[nH]cnc2n(C)c1=O`, the TGI with K-562 leukemia, with KM12 colon, in the test on NCI-H460 lung, in the test on OVCAR-8 ovarian and in the test on PC-3 prostate was over 100 µM each time.

Take `CC(=O)N/N=C1\NN(C(C)=O)C2(S1)C(=O)Nc1ccccc12` (centres undefined): the TGI in the test with HT29 colon, in the test with K-562 leukemia, with KM12 colon, with NCI-H460 lung, in the test on OVCAR-4 ovarian and in the test on OVCAR-8 ovarian was over 100 µM in each case. Besides, the TGI with PC-3 prostate, with SNB-75 CNS and in the test on U251 CNS was over 100 µM throughout.

For the compound `Cc1cn(C2CC(O)C(Cn3cc(Cn4nc(Br)c(=O)[nH]c4=O)nn3)O2)c(=O)[nH]c1=O` (centres undefined), the TGI with KM12 colon, with OVCAR-4 ovarian, with OVCAR-8 ovarian, with PC-3 prostate, with RXF 393 renal and with SNB-75 CNS was over 100 µM in each case. In the test on U251 CNS, this compound had a TGI of over 100 µM.

With `COc1cccc(C2c3cc4c(cc3OC(N3CCOCC3)C2C)OCO4)c1` (centres undefined), the TGI with HT29 colon was 25 µM; in the test with K-562 leukemia, over 100 µM; with NCI-H460 lung, 37.7 µM; with OVCAR-4 ovarian, 61 µM; in the test on OVCAR-8 ovarian, over 100 µM; with PC-3 prostate it was 44.4 µM. For the same compound, the TGI in the test with SNB-75 CNS was over 100 µM.

Consider `O=C1/C(=C/c2ccc(Cl)c(Cl)c2)CN(C(=O)CCN2CCOCC2)C/C1=C\c1ccc(Cl)c(Cl)c1`, for which the GI50 was 0.259 µM and 0.315 µM in the test on K-562 leukemia; 1.56 µM with OVCAR-4 ovarian. For the same compound, the TGI was 0.585 µM and 2.99 µM in the test on K-562 leukemia; 0.137 µM and 1.27 µM and 0.326 µM with KM12 colon; 0.0157 µM in the test on PC-3 prostate.

Regarding `CC[N+]1(C)CCC(O)(/C=C/c2ccc(Cl)c(Cl)c2)C(C(=O)/C=C/c2ccc(Cl)c(Cl)c2)C1` (centres undefined), the TGI was determined as 4.53 µM in the test with HT29 colon; 4.07 µM in the test with K-562 leukemia; 6.69 µM with KM12 colon; 9.03 µM with NCI-H460 lung; 8.97 µM in the test with OVCAR-8 ovarian; 5.19 µM with PC-3 prostate. The TGI in the test on RXF 393 renal came out at 4.02 µM; in the test with SNB-75 CNS it was 12.2 µM; in the test with U251 CNS, 3.71 µM.
